Data as given in patent US9765087B2, “Benzimidazole derivatives” (ENANTA PHARMACEUTICALS, INC., priority 2009, dated 2017).
Like-named read-outs stand apart in the source and are kept apart here.

Assays:
HCV 1b genotype replicon = assay: HCV replicon assay (qRT-PCR or luciferase), genotype 1b; type: cell-based; settings: Hepatitis C virus
How it was run: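 EC50 derived either from luciferase signal in Huh-luc/neo-ET replicon cells after 72 h compound exposure (0.2% DMSO, 37 °C) or from TaqMan qRT-PCR of replicon RNA normalized to GAPDH. MTS assay assessed cytotoxicity; combinations tested in 6-point two-fold checkerboards around each EC50.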

HCV 1a genotype replicon = assay: HCV replicon assay (qRT-PCR or luciferase), genotype 1a; type: cell-based; settings: Hepatitis C virus
Method: HCV replicon cell lines (kindly provided by R. Bartenschlager) isolated from colonies as described by Lohman et. al. (Lohman et al. (1999) Science 285: 110-113, expressly incorporated by reference in its entirety) and used for all experiments. The HCV replicon has the nucleic acid sequence set forth in EMBL Accession No.: AJ242651, the coding sequence of which is from nucleotides 1801 to 8406.
These cell lines were maintained at 37° C., 5% CO2, 100% relative humidity in DMEM (Cat#11965-084, Invitrogen), with 10% fetal calf serum (“FCS”, Invitrogen), 1% non-essential amino acids (Invitrogen), 1% of Glutamax (Invitrogen), 1% of 100× penicillin/streptomycin (Cat#15140-122, Invitrogen) and Geneticin (Cat#10131-027, Invitrogen) at 0.75 mg/ml or 0.5 mg/ml for 11-7 and Huh-luc/neo-ET cells, respectively.
EC50 values of single agent compounds and combinations were determined by HCV RNA detection using quantitative RT-PCR, according to the manufacturer's instructions, with a TAQMAN® One-Step RT-PCR Master Mix Reagents Kit (Cat#AB 4309169, Applied Biosystems) on an ABI Model 7500 thermocycler. The TaqMan primers used for detecting and quantifying HCV RNA were obtained from Integrated DNA Technologies. HCV RNA was normalized to GAPDH RNA levels in drug-treated cells, which is detected and quantified using the Human GAPDH Endogenous Control Mix (Applied Biosystems, AB 4310884E). Total cellular RNA is purified from 96-well plates using the RNAqueous 96 kit (Ambion, Cat# AM1812). Chemical agent cytotoxicity is evaluated using an MTS assay according to the manufacturer's directions (Promega).
Since clinical drug resistance often develops in viral infections following single agent therapies, there is a need to assess the additive, antagonistic, or synergistic properties of combination therapies. We used the HCV replicon system to assess the potential use of the compound of the present invention or in combination therapies with Interferon alpha, cyclosporine analogs and inhibitors targeting other HCV proteins. The acute effects of a single or combinations of drugs are studied in the “Huh-luc/neo-ET” replicon with each chemical agent titrated in an X or Y direction in a 6 point two-fold dilution curve centered around the EC50 of each drug. Briefly, replicon cells are seeded at 7,000 cells per well in 90 ul DMEM (without phenol red, Invitrogen Cat.#31053-036) per well with 10% FCS, 1% non-essential amino acids, 1% of Glutamax and 1% of 100× penicillin/streptomycin and incubated overnight at 37° C., 5% CO2, 100% relative humidity. 16-20 h after seeding cells, test compounds previously solubilized and titrated in dimethyl sulfoxide (“DMSO”) from each X plate and Y plate are diluted 1:100 in DMEM (without phenol red, Invitrogen Cat.#31053-036) with 10% FCS, 1% non-essential amino acids, 1% of Glutamax and 1% of 100× penicillin/streptomycin and added directly to the 96-well plate containing cells and growth medium at a 1:10 dilution for a final dilution of compound and DMSO of 1:1000 ([…] final concentration). Drug treated cells are incubated at 37° C., 5% CO2, 100% relative humidity for 72 hours before performing a luciferase assay using 100 ul per well BriteLite Plus (Perkin Elmer) according to the manufacturer's instructions. Data analysis utilizes the method published by Prichard and Shipman (Antiviral Research, 1990. 14:181-205). Using this method, the combination data are analyzed for antagonistic, additive, or synergistic combination effects across the entire combination surface created by the diluted compounds in combination.
The compounds of the present invention can be effective against the HCV 1b genotype. It should also be understood that the compounds of the present invention can inhibit multiple genotypes of HCV. In one embodiment compound of the present invention are active against the 1a, 1b, 2a, 2b, 3a, 4a, and 5a genotypes. […] EC50 ranges against HCV 1b and 1a are as follows: A>10 nM; B1-10 nM; C<1 nM.

[1] = Table 12, numeric values, read-out: 1b EC50
[2] = Table 12, range class, read-out: 1a EC50 Range
[3] = Table 12, numeric values, read-out: 1a EC50

Structure (SMILES) | EC50 (HCV 1b genotype replicon; [1]) [nM] | EC50 (HCV 1a genotype replicon; [2]) [nM] | further results
COC(=O)N[C@H](C(=O)N1CC(F)(F)C[C@H]1c1nc(-c2ccc(C#Cc3ccc4[nH]c([C@@H]5C[C@@]6(CCCO6)CN5C(=O)[C@@H](NC(=O)OC)C(C)C)nc4c3)cc2)c[nH]1)C(C)C [Example 627] | 0.01 | < 1 | 
COC(=O)N[C@@H](COC(N)=O)C(=O)N1CCC[C@H]1c1ncc(-c2ccc(C#Cc3ccc4nc([C@@H]5CC6(CC6)CN5C(=O)[C@@H](NC(=O)OC)C(C)C)[nH]c4c3)cc2)[nH]1 [Example 552] |  | < 1 | EC50 (HCV 1b genotype replicon; Table 12, range class, read-out: 1b EC50 Range): < 1 nM
COC(=O)N[C@H](C(=O)N1CC2(CC2)C[C@H]1c1nc2ccc(C#Cc3ccc(-c4cnc([C@@H]5CC6(CC6)CN5C(=O)[C@@H](NC(=O)OC)[C@@H](C)OCCF)[nH]4)cc3)cc2[nH]1)C(C)C [Example 547] | 0.018 | < 1 | 
COC(=O)N[C@H](C(=O)N1CCC[C@H]1c1ncc(-c2ccc3nc(-c4ccc5nc([C@@H]6CC7(CC7)CN6C(=O)[C@@H](NC(=O)OC)C(C)C)[nH]c5c4)cnc3c2)[nH]1)C(C)C [Example 643] | 0.054 | < 1 | 
COC(=O)N[C@H](C(=O)N1C[C@](C)(F)C[C@H]1c1nc(-c2ccc(C#Cc3ccc4[nH]c([C@@H]5C[C@@]6(CCCO6)CN5C(=O)[C@@H](NC(=O)OC)C(C)C)nc4c3)cc2)c[nH]1)C(C)C [Example 567] | 0.015 | < 1 | 
COC(=O)N[C@H](C(=O)N1C[C@H](F)C[C@H]1c1nc(-c2ccc(C#Cc3ccc4[nH]c([C@@H]5C[C@@]6(CCCO6)CN5C(=O)[C@@H](NC(=O)OC)C(C)C)nc4c3)cc2)c[nH]1)C(C)C [Example 629] | 0.017 |  | EC50 (HCV 1a genotype replicon; [3]): 0.18 nM
COC(=O)N[C@H](C(=O)N1CCC[C@H]1c1ncc(-c2ccc(C#Cc3ccc4nc([C@@H]5C[C@H](C6CC6)CN5C(=O)[C@@H](NC(=O)OC)C(C)C)[nH]c4c3)cc2)[nH]1)C(C)C [Example 641] | 0.007 | < 1 | 
COC(=O)N[C@H](C(=O)N1CC2(CC2)C[C@H]1c1nc2ccc(C#Cc3ccc(-c4cnc([C@@H]5C[C@H]6C[C@H]6N5C(=O)[C@@H](NC(=O)OC)C(C)C)[nH]4)cc3)cc2[nH]1)C(C)C [Example 637] | 0.004 | < 1 | 
COC(=O)N[C@@H](C(=O)N1CC2(CC2)C[C@H]1c1ncc(-c2ccc(C#Cc3ccc4nc([C@@H]5CC6(CC6)CN5C(=O)[C@H](NC(=O)OC)c5ccccc5)[nH]c4c3)cc2)[nH]1)c1ccccc1 [Example 645] | 0.005 | < 1 | 
COC(=O)N[C@@H](CF)C(=O)N1CC2(CC2)C[C@H]1c1nc(-c2ccc(C#Cc3ccc4[nH]c([C@@H]5CC6(CC6)CN5C(=O)[C@@H](NC(=O)OC)C(C)C)nc4c3)cc2)c[nH]1 [Example 615] | 0.005 | < 1 | 
COC(=O)N[C@H](C(=O)N1CC2(CC2)C[C@H]1c1nc2ccc(C#Cc3ccc(-c4cnc([C@@H]5CCCN5C(=O)[C@@H](NC(=O)OC)C5CCCCC5)[nH]4)cc3)cc2[nH]1)C(C)C [Example 607] |  | < 1 | 
COC(=O)N[C@H](C(=O)N1C[C@@H]2C[C@@H]2[C@H]1c1nc2cc(C#Cc3ccc(-c4c[nH]c([C@@H]5CCCN5C(=O)[C@@H](NC(=O)OC)C(C)C)n4)cc3)ccc2[nH]1)C(C)C [Example 690] |  | 1 to 10 | 
COC(=O)N[C@H](C(=O)N1CC2(CC2)C[C@H]1c1ncc(-c2ccc(C#Cc3ccc4nc([C@@H]5CC6(CC6)CN5C(=O)[C@H](NC(=O)OC)c5cccnc5)[nH]c4c3)cc2)[nH]1)C(C)C [Example 610] |  | < 1 | 
CC[C@H](C)[C@H](NC(=O)OC)C(=O)N1CC2(CC2)C[C@H]1c1ncc(-c2ccc(C#Cc3ccc4nc([C@@H]5CC6(CC6)CN5C(=O)[C@@H](NC(=O)OC)C(C)C)[nH]c4c3)cc2)[nH]1 [Example 674] |  | < 1 | 
CC[C@@H](C)[C@H](NC(=O)OC)C(=O)N1CC2(CC2)C[C@H]1c1ncc(-c2ccc(C#Cc3ccc4nc([C@@H]5CC6(CC6)CN5C(=O)[C@@H](NC(=O)OC)C(C)C)[nH]c4c3)cc2)[nH]1 [Example 606] |  | < 1 | 
COC(=O)N[C@H](C(=O)N1C[C@@H](CF)C[C@H]1c1ncc(-c2ccc(C#Cc3ccc4nc([C@@H]5C[C@@]6(CCCO6)CN5C(=O)[C@@H](NC(=O)OC)C(C)C)[nH]c4c3)cc2)[nH]1)C(C)C [Example 566] |  | < 1 | 
COC(=O)N[C@H](C(=O)N1CC2(CC2)C[C@H]1c1ncc(-c2ccc(C#Cc3ccc4nc([C@@H]5CC6(CC6)CN5C(=O)[C@H](NC(=O)OC)c5cccs5)[nH]c4c3)cc2)[nH]1)C(C)C [Example 582] |  | < 1 | 
COC(=O)N[C@H](C(=O)N1CC2(CC2)C[C@H]1c1ncc(-c2ccc(C#Cc3ccc4nc([C@@H]5CC6(CC6)CN5C(=O)[C@@H](N)C(C)C)[nH]c4c3)cc2)[nH]1)C(C)C [Example 556] |  | > 10 | 
COC(=O)N[C@H](C(=O)N1CC2(CC2)C[C@H]1c1nc2ccc(C#Cc3ccc(-c4cnc([C@@H]5CCCN5C(=O)[C@@H](NC(=O)OC)[C@@H](C)OC)[nH]4)cc3)cc2[nH]1)C(C)C [Example 598] |  | < 1 | 
COC(=O)N[C@H](C(=O)N1CC2(CC2)C[C@H]1c1nc(-c2ccc(C#Cc3ccc4[nH]c([C@@H]5CC6(CC6)CN5C(=O)[C@@H](NC(=O)OC)C(C)C)nc4c3)cc2)c(-c2ccncc2)[nH]1)C(C)C [Example 593] |  | < 1 | 
COC(=O)N[C@H](C(=O)N1CC2(CC2)C[C@H]1c1nc2ccc(C#Cc3ccc(-c4cnc([C@@H]5CCCN5C(=O)[C@H](NC(=O)OC)c5cccc(F)c5)[nH]4)cc3)cc2[nH]1)C(C)C [Example 600] |  | < 1 | 
COC(=O)N[C@H](C(=O)N1CC2(CC2)C[C@H]1c1ncc(-c2ccc(C#Cc3ccc4nc([C@@H]5CC6(CC6)CN5C(=O)[C@H](NC(=O)OC)c5ccc(Cl)cc5)[nH]c4c3)cc2)[nH]1)C(C)C [Example 650] |  |  | EC50 (HCV 1a genotype replicon; [3]): 0.079 nM
COC(=O)N[C@H](C(=O)N1CC2(CC2)C[C@H]1c1nc2ccc(C#Cc3ccc(-c4cnc([C@@H]5C[C@H]6C[C@H]6N5C(=O)[C@H](NC(=O)OC)c5cccc(F)c5)[nH]4)cc3)cc2[nH]1)C(C)C [Example 684] |  | < 1 | 
COC(=O)N[C@H](C(=O)N1CC2(CC2)C[C@H]1c1nc2ccc(C#Cc3ccc(-c4cnc([C@@H]5CC6(CC6)CN5C(=O)[C@@H](NC(=O)OC)C(C)C)[nH]4)cc3)cc2[nH]1)c1ccccc1 [Example 592] |  | < 1 | 
COC(=O)N[C@H](C(=O)N1CC2(CC2)C[C@H]1c1nc2ccc(C#Cc3ccc(-c4cnc([C@@H]5CCCN5C(=O)OC(C)(C)C)[nH]4)cc3)cc2[nH]1)C(C)C [Compound 666] |  | > 10 | 
COC(=O)N[C@H](C(=O)N1CC2(CC2)C[C@H]1c1ncc(-c2ccc(C#Cc3ccc4nc([C@@H]5CC6(CC6)CN5C(=O)[C@H](NC(=O)OC)c5cccc(F)c5)[nH]c4c3)cc2)[nH]1)C(C)C [Example 653] |  | < 1 | 
COC(=O)N[C@H](C(=O)N1CC2(CC2)C[C@H]1c1ncc(-c2ccc(C#Cc3ccc4nc([C@@H]5CC6(CC6)CN5C(=O)[C@H](NC(=O)OC)C5CCCC5)[nH]c4c3)cc2)[nH]1)C(C)C [Example 599] |  | 1 to 10 | 
COC(=O)N[C@@H](CNC(N)=O)C(=O)N1CCC[C@H]1c1ncc(-c2ccc(C#Cc3ccc4nc([C@@H]5CC6(CC6)CN5C(=O)[C@@H](NC(=O)OC)C(C)C)[nH]c4c3)cc2)[nH]1 [Example 550] |  | 1 to 10 | 
